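1) Cells in 96-well plates. 2) Compound, 48 h, 5 concentrations. 3) Linear interpolation between surrounding doses. 4) Unreached endpoint = highest concentration. Abbreviation: GI50, concentration required for 50% inhibition of growth. TGI: concentration producing complete growth inhibition.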
Assays:
Test in all cases: inhibition of tumour cell growth, NCI panel, 48 h
[1] = tested on: HCT-116 colon
[2] = tested on: MOLT-4 leukemia
[3] = tested on: CCRF-CEM leukemia
[4] = tested on: UO-31 renal
[5] = tested on: SF-295 CNS
[6] = tested on: LOX IMVI melanoma
[7] = tested on: OVCAR-3 ovarian
[8] = tested on: NCI-H23 lung
[9] = tested on: HOP-62 NSCLC
[10] = tested on: CAKI-1 renal

CN1C2C=C(c3ccccc3)CC1CC2 (stereo unspecified)
TGI [1]: > 100 µM
TGI [2]: > 100 µM
TGI [3]: > 100 µM
TGI [4]: > 100 µM
TGI [5]: > 100 µM
TGI [6]: > 100 µM
TGI [7]: > 100 µM
TGI [8]: > 100 µM

CCOc1ccc(/C=C/[N+](=O)[O-])cc1
GI50 [1]: 1.93 µM
TGI [1]: 3.55 µM
GI50 [2]: 5.7 µM
TGI [2]: 42.9 µM
GI50 [3]: 3.23 µM
TGI [3]: 52.3 µM
GI50 [4]: 13.8 µM
TGI [4]: 28.8 µM
GI50 [9]: 12.5 µM
TGI [9]: 26.3 µM
GI50 [5]: 19.2 µM
TGI [5]: 41.8 µM
GI50 [7]: 4.53 µM
TGI [7]: 15.8 µM
GI50 [8]: 18.5 µM
TGI [8]: > 100 µM
GI50 [10]: 37 µM
TGI [10]: > 100 µM

O=C1Nc2ccccc2Nc2nc3cccccc-3c21
TGI [1]: > 100 µM
TGI [3]: > 100 µM
TGI [4]: > 100 µM
TGI [9]: > 100 µM
TGI [5]: > 100 µM
TGI [6]: > 100 µM
TGI [7]: > 100 µM
TGI [8]: > 100 µM
TGI [10]: > 100 µM

CC1(C)CCc2cc3c(-c4ccccc4)cc(=O)oc3cc2O1
TGI [2]: > 100 µM
TGI [3]: > 100 µM
TGI [4]: > 100 µM
TGI [5]: > 100 µM
TGI [6]: > 100 µM
TGI [7]: > 100 µM
TGI [8]: > 100 µM
TGI [10]: > 100 µM

[C-]#[O+].[Cl][Sn]([Cl])[Cl].[Cl][Sn]([Cl])[Cl].[Pt].c1ccncc1
TGI [1]: > 100 µM
TGI [2]: > 100 µM
TGI [3]: > 100 µM
TGI [4]: > 100 µM
TGI [9]: > 100 µM
TGI [5]: > 100 µM
TGI [6]: > 31.6 µM
TGI [7]: > 100 µM
TGI [8]: > 100 µM
TGI [10]: > 100 µM

c1ccc2c(c1)nc1n2CSC1
TGI [2]: > 100 µM
TGI [3]: > 100 µM
TGI [4]: > 100 µM
TGI [5]: > 100 µM
TGI [6]: > 100 µM
TGI [7]: > 100 µM
TGI [8]: > 100 µM
TGI [10]: > 100 µM

O=C(Nc1ccc(Cl)cc1)/C(Cc1cccc[n+]1[O-])=N\Nc1ccc([N+](=O)[O-])cc1[N+](=O)[O-]
TGI [1]: > 100 µM
TGI [2]: > 100 µM
TGI [3]: > 100 µM
TGI [4]: > 100 µM
TGI [9]: > 100 µM
TGI [5]: > 100 µM
TGI [6]: > 100 µM
TGI [7]: > 100 µM
TGI [8]: > 100 µM
TGI [10]: > 100 µM

CC(C)=CC(=O)OC1C2C(C)C(=O)OC2C(O)C(C)C2C=CC(=O)C21C (stereo unspecified)
TGI [1]: 4.69 µM
TGI [2]: 9.71 µM
TGI [3]: 8.18 µM
TGI [4]: 10.5 µM
TGI [9]: 14.7 µM
TGI [5]: 13.4 µM
TGI [6]: 3.44 µM
TGI [7]: 6.92 µM
TGI [8]: 7.59 µM
TGI [10]: 7.71 µM

O=C(Nc1nc2ccc([N+](=O)[O-])cc2[n+]([O-])n1)C(F)(F)F
TGI [1]: 60.1 µM
TGI [2]: 81.6 µM
TGI [3]: > 100 µM
TGI [4]: > 100 µM
TGI [5]: > 100 µM
TGI [8]: 80.3 µM
TGI [10]: > 100 µM

O=C1CN2C(Cl)(Cl)C2(c2ccccc2)c2cc(Cl)ccc2N1CC(F)(F)F (stereo unspecified)
TGI [1]: 49.3 µM
TGI [2]: 55.8 µM
TGI [3]: 42.3 µM
TGI [4]: > 100 µM
TGI [9]: 60.7 µM
TGI [5]: > 100 µM
TGI [6]: 39 µM
TGI [7]: 39 µM
TGI [8]: 70.1 µM
TGI [10]: > 100 µM

CCOP(=O)(OCC)C(Cc1ccc(OC)c(OC)c1)N=C(c1ccccc1)c1ccccc1 (stereo unspecified)
TGI [1]: > 100 µM
TGI [3]: 96.9 µM
TGI [4]: > 100 µM
TGI [5]: > 100 µM
TGI [7]: > 100 µM
TGI [8]: > 100 µM
TGI [10]: > 100 µM

Cc1nc2ccccc2c(=O)n1CC(=O)O
TGI [1]: > 100 µM
TGI [2]: > 100 µM
TGI [3]: > 100 µM
TGI [4]: > 100 µM
TGI [9]: > 100 µM
TGI [5]: > 100 µM
TGI [6]: > 100 µM
TGI [7]: > 100 µM
TGI [8]: > 100 µM
TGI [10]: > 100 µM

Cc1cccc2c(N)c3cccc(C(=O)NCCN(C)C)c3nc12
TGI [1]: 2.38 µM
TGI [3]: 0.0324 µM
TGI [4]: 0.81 µM
TGI [9]: 0.459 µM
TGI [5]: 0.615 µM
TGI [6]: 0.158 µM
TGI [7]: 0.929 µM
TGI [8]: 1.16 µM
TGI [10]: 1.08 µM

C[C@]12C=CC(=O)C=C1CC[C@@H]1[C@@H]2C(=O)C[C@@]2(C)[C@H]1CC[C@]2(O)C(=O)CO
TGI [1]: > 100 µM
TGI [2]: > 100 µM
TGI [3]: > 100 µM
TGI [4]: > 100 µM
TGI [9]: > 100 µM
TGI [5]: > 100 µM
TGI [6]: > 100 µM
TGI [7]: > 100 µM
TGI [8]: > 100 µM
TGI [10]: > 100 µM

CCN(CC)CCCC(Nc1c2ccc(Cl)cc2nc2ccc(OC)cc12)c1ccc(F)cc1 (stereo unspecified)
GI50 [1]: 1.84 µM
TGI [1]: 3.48 µM
GI50 [2]: 2.72 µM
TGI [2]: 7.06 µM
GI50 [3]: 2.4 µM
TGI [3]: 6.49 µM
GI50 [4]: 1.56 µM
TGI [4]: 3.15 µM
GI50 [9]: 2.54 µM
TGI [9]: 6.87 µM
GI50 [5]: 1.6 µM
TGI [5]: 3.16 µM
GI50 [6]: 1.77 µM
TGI [6]: 3.26 µM
GI50 [7]: 2.16 µM
TGI [7]: 4.44 µM
GI50 [8]: 2.56 µM
TGI [8]: 7.9 µM
GI50 [10]: 1.73 µM
TGI [10]: 3.79 µM

O=C(O)c1cc(=O)[nH]c(=S)[nH]1
TGI [1]: > 100 µM
TGI [2]: > 100 µM
TGI [3]: > 100 µM
TGI [4]: > 100 µM
TGI [9]: > 100 µM
TGI [5]: > 100 µM
TGI [6]: > 100 µM
TGI [7]: > 100 µM
TGI [8]: > 100 µM
TGI [10]: > 100 µM

CC[C@@H](C(=O)[C@@H](C)[C@@H](O)[C@H](C)CCc1ccc(C)c(O)c1C(=O)O)[C@H]1O[C@](CC)([C@H]2CC[C@](O)(CC)[C@H](C)O2)C[C@@H]1C
TGI [1]: 9.65 µM
TGI [2]: 3.12 µM
TGI [3]: 6.29 µM
TGI [4]: 12.4 µM
TGI [9]: 4.24 µM
TGI [5]: 6.91 µM
TGI [6]: 12 µM
TGI [7]: 10.9 µM
TGI [8]: 6.87 µM
TGI [10]: 11.7 µM

COc1c2c(cc3c(CCc4ccccc4)cc(=O)oc13)CCC(C)(C)O2
TGI [1]: > 100 µM
TGI [2]: > 100 µM
TGI [3]: > 100 µM
TGI [4]: > 100 µM
TGI [9]: > 100 µM
TGI [5]: > 100 µM
TGI [6]: > 100 µM
TGI [7]: > 100 µM
TGI [8]: > 100 µM

Cc1ccc(/C(=C/C=C(C#N)C#N)Sc2cc(Cl)ccc2Cl)cc1
TGI [1]: 5.06 µM
TGI [4]: > 100 µM
TGI [9]: > 100 µM
TGI [5]: 16 µM
TGI [6]: 3.33 µM
TGI [7]: 11.8 µM
TGI [8]: 16.1 µM
TGI [10]: 19.9 µM

CC(C)=CCc1c(C)cc2cc3c(c(O)c2c1O)C(O)=CC(=O)C3(CC=C(C)C)C/C=C(\C)CO (stereo unspecified)
TGI [1]: 72.3 µM
TGI [2]: 75.7 µM
TGI [3]: 60.1 µM
TGI [4]: 64.4 µM
TGI [9]: 64.3 µM
TGI [5]: 87.9 µM
TGI [6]: 77.4 µM
TGI [7]: 76.3 µM
TGI [8]: 84.8 µM
TGI [10]: 91.3 µM

CN1CCN(Cc2ccc(NC(=O)c3ccc(C#N)c(C#Cc4cnc(N)c5ncccc45)c3)cc2C(F)(F)F)CC1
GI50 [2]: 1.82 µM
TGI [2]: 8.04 µM
GI50 [4]: 1.6 µM
TGI [4]: 2.99 µM
GI50 [5]: 22.1 µM
TGI [5]: 78.3 µM
GI50 [7]: 3.34 µM
TGI [7]: 10.4 µM
GI50 [10]: 1.91 µM
TGI [10]: 5.04 µM

CCCCN(CCCC)CCCCNc1c(C)cnc2cc(Cl)ccc12
TGI [1]: 42 µM
TGI [2]: > 100 µM
TGI [3]: > 100 µM
TGI [4]: 25.1 µM
TGI [9]: 68.2 µM
TGI [5]: 50.8 µM
TGI [6]: 29.7 µM
TGI [7]: > 100 µM
TGI [8]: > 100 µM

CCOc1ccc2c(ccc(/C=C\c3cc(C)c4cccnc4c3O)[n+]2C)c1
TGI [1]: 25 µM
TGI [2]: 10.6 µM
TGI [4]: 35.1 µM
TGI [9]: 28 µM
TGI [5]: 20.7 µM
TGI [6]: 66.4 µM
TGI [7]: 2 µM
TGI [8]: 43.5 µM
TGI [10]: 29.3 µM

Cc1ccc(S(=O)(=O)Oc2cc(S(=O)(=O)O)cc3cc(S(=O)(=O)O)cc(N)c23)cc1
TGI [1]: > 100 µM
TGI [3]: > 100 µM
TGI [4]: > 100 µM
TGI [9]: > 100 µM
TGI [5]: > 100 µM
TGI [6]: > 100 µM
TGI [7]: > 100 µM
TGI [8]: > 100 µM
TGI [10]: > 100 µM

CC1=C[C@]2(CC(C)C3C(CC4(C)C5CCC6C(C)(C)C(=O)CC[C@@]67C[C@@]57CC[C@]34C)O2)OC1=O (stereo partly specified)
TGI [1]: > 100 µM
TGI [2]: > 100 µM
TGI [3]: > 100 µM
TGI [5]: 89.5 µM
TGI [6]: 46.6 µM
TGI [8]: > 100 µM
TGI [10]: 62.2 µM

COc1cc2c3c(n(CCN(C)C)c(=O)c2cc1OC)-c1cc2c(cc1C3=O)OCO2
TGI [1]: 19.3 µM
GI50 [2]: < 0.0491 µM
GI50 [3]: 0.294 µM
TGI [3]: 1.61 µM
GI50 [4]: 9.3 µM
TGI [4]: > 100 µM
TGI [9]: > 86.1 µM
GI50 [5]: 0.511 µM
TGI [5]: > 41.7 µM
TGI [6]: > 21.5 µM
GI50 [7]: 8.31 µM
TGI [7]: 38.4 µM
GI50 [8]: 0.137 µM
TGI [8]: > 100 µM
GI50 [10]: 0.747 µM
TGI [10]: 44.3 µM

CO/N=C1/c2sccc2[C@H](NC(=O)C(F)(F)F)[C@@H]1O
TGI [1]: > 100 µM
TGI [2]: > 100 µM
TGI [3]: > 100 µM
TGI [4]: > 100 µM
TGI [9]: > 100 µM
TGI [5]: > 100 µM
TGI [6]: > 100 µM
TGI [7]: > 100 µM
TGI [8]: > 100 µM
TGI [10]: > 100 µM
